Laboratory results from patent US11827628B2, “Compositions and methods for inhibition of the JAK pathway” (Rigel Pharmaceuticals, Inc., priority 2005, dated 2023).
Read-outs that look alike come from different tables or passages of the source.

How the values were obtained:
[1] = system: IL-4 stimulated expression of CD23 in human Ramos B cells (JAK-1 and JAK-3); test: Assay for Ramos B-Cell Line Stimulated with IL-4 (CD23 upregulation, FACS); type: cell-based; conditions: read-out: IC50, Example 41
In short: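 Read-out: anti-CD23-PE flow cytometry on Ramos B cells, giving IC50. Cells (5×10^4 per point, RPMI + 5% serum) get compound or DMSO for 1 h at 37 °C, then IL-4 50 units/mL final for 20-24 h.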

Primary human T-cells = test: Primary Human T-Cell Proliferation Assay Stimulated with IL-2 (CellTiter-Glo); type: cell-based; conditions: read-out: IC50, Example 42
In short: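 IC50 derived from CellTiter-Glo ATP signal after 72 hours of IL-2-driven proliferation at 37° C. Cells: primary human T-cells from blood, stimulated beforehand 3-4 days on anti-CD3/anti-CD28 with IL-2, then rested from IL-2 before compound exposure in duplicate; IL-2-free wells served as unstimulated control.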

[2] = Homo sapiens, Ramos, Ramos B-cell line stimulated with IL-4, CD23 expression by FACS
[3] = Homo sapiens, T-cell, primary human T-cell proliferation stimulated with IL-2
[4] = Ramos B cells stimulated with IL-4, CD23 expression by FACS
[5] = primary human T-cells stimulated with IL-2, proliferation

Structure (SMILES) | IC50 [1, 2] | IC50 (Primary human T-cells; [3]) | other results
Cc1cnc(Nc2ccc(S(N)(=O)=O)cc2)nc1Nc1ccc(OCC(=O)N(C)C)c(Cl)c1 [Compound I-134, N2-(4-Aminosulfonylphenyl)-N4-(3-chloro-4-dimethylaminocarbonylmethoxyphenyl)-5-methyl-2,4-pyrimidinediamine] | 178 nM | 510 nM | 
Cc1nnc(COc2ccc(Nc3nc(Nc4ccc(C)c(S(N)(=O)=O)c4)ncc3F)cc2)o1 [Compound I-279, N2-(3-Aminosulfonyl-4-methylphenyl)-5-fluoro-N4-[4-(5-methyl-1,3,4-oxadiazol-2-yl)methoxyphenyl]-2,4-pyrimidinediamine] | 123 nM | 167 nM | 
NS(=O)(=O)c1ccc(Nc2ncc(F)c(Nc3ccc(Cc4ccncc4)cc3)n2)cc1 [III-71, N2-(4-Aminosulfonylphenyl)-5-fluoro-N4-[4-(4-pyridinylmethyl)phenyl]-2,4-pyrimidinediamine] | 97.9 nM | 368 nM | 
Cc1noc(CCc2ccc(Nc3nc(Nc4cccc(S(N)(=O)=O)c4)ncc3F)cc2)n1 [III-106, N2-(3-Aminosulfonylphenyl)-5-fluoro-N4-[4-(3-methyl-1,2,4-oxadiazol-5-yl)ethylenephenyl]-2,4-pyrimidinediamine] |  |  | IC50 [1, 4]: 42.8 nM; IC50 (Primary human T-cells; [5]): 75.1 nM
COC(=O)c1ccc(Nc2nc(Nc3ccc(F)c(S(N)(=O)=O)c3)ncc2F)s1 [IX-48, N2-(3-Aminosulfonyl-4-fluorophenyl)-5-fluoro-N4-(5-methoxycarbonyl-thiophene-2-yl)-2,4-pyrimidinediamine] |  |  | IC50 ([1]; Homo sapiens, Ramos, Ramos B cells stimulated with IL-4, CD23 expression by FACS): 258 nM; IC50 (Primary human T-cells; Homo sapiens, T-cell, primary human T-cells stimulated with IL-2, proliferation): 2620 nM
Cc1ccc(Nc2ncc(F)c(Nc3ccc(CN4CCOCC4)cc3)n2)cc1S(N)(=O)=O [III-104, N2-(3-Aminosulfonyl-4-methylphenyl)-5-fluoro-N4-(4-N-morpholinomethylenephenyl)-2,4-pyrimidinediamine] |  |  | IC50 [1, 4]: 242 nM; IC50 (Primary human T-cells; [5]): 1190 nM
CNC(=O)COc1ccc(Nc2nc(Nc3ccc(S(N)(=O)=O)cc3)ncc2C)cc1Cl [Compound I-149, N2-(4-Aminosulfonylphenyl)-N4-(3-chloro-4-methylaminocarbonylmethoxyphenyl)-5-methyl-2,4-pyrimidinediamine] | 161 nM | 197 nM | 
Cc1ccc(Nc2ncc(F)c(Nc3ccc(OC4CCN(C)CC4)cc3)n2)cc1S(N)(=O)=O [II-7, N2-(3-Aminosulfonyl-4-methylphenyl)-5-fluoro-N4-{4-[(1-methylpiperidin-4-yl)oxy]phenyl}-2,4-pyrimidinediamine] | 144 nM | 522 nM | 
Cc1cnc(Nc2cccc(S(N)(=O)=O)c2)nc1Nc1ccc(OCC(N)=O)cc1 [Compound I-109, N4-(4-Aminocarbonylmethoxyphenyl)-N2-(3-aminosulfonylphenyl)-5-methyl-2,4-pyrimidinediamine] | 305 nM | 203 nM | 
CNC(=O)COc1ccc(Nc2nc(Nc3cccc(S(N)(=O)=O)c3)ncc2C)cc1Cl [Compound I-150, N2-(3-Aminosulfonylphenyl)-N4-(3-chloro-4-methylaminocarbonylmethoxyphenyl)-5-methyl-2,4-pyrimidinediamine] | 65.7 nM | 68.1 nM | 
COc1cc(Nc2nc(Nc3cccc(S(N)(=O)=O)c3)ncc2F)ccc1OCC#N [Compound I-46, N2-(3-Aminosulfonylphenyl)-N4-(4-cyanomethoxy-3-methoxyphenyl)-5-fluoro-2,4-pyrimidinediamine] | 113 nM | 409 nM | 
Cc1ccc(Nc2ncc(F)c(Nc3ccc(OCC#N)c(CO)c3)n2)cc1S(N)(=O)=O [Compound I-51, N2-(3-Aminosulfonyl-4-methylphenyl)-N4-(4-cyanomethoxy-3-hydroxymethylphenyl)-5-fluoro-2,4-pyrimidinediamine] | 263 nM | 2120 nM | 
NS(=O)(=O)c1ccc(Nc2ncc(F)c(Nc3ccc(OCCN4CCOCC4)cc3)n2)cc1 [Compound I-205, N2-(4-Aminosulfonylphenyl)-5-fluoro-N4-[4-(2-morpholinoethyloxy)phenyl)-2,4-pyrimidinediamine] | 315 nM | 1860 nM | 
COc1cc(Nc2nc(Nc3ccc(S(N)(=O)=O)cc3)ncc2F)ccc1OCC#N [Compound I-45, N2-(4-Aminosulfonylphenyl)-N4-(4-cyanomethoxy-3-methoxyphenyl)-5-fluoro-2,4-pyrimidinediamine] | 104 nM | 834 nM | 
COc1ccc(CN2C(=O)C(C)Oc3ccc(Nc4nc(Nc5ccc(S(N)(=O)=O)cc5)ncc4F)cc32)cc1 (racemic) [Compound V-4, Racemic N2-(4-Aminosulphonylphenyl)-5-fluoro-N4-[2-methyl-3-oxo-4-(4-methoxybenzyl)-benz[1,4]oxazin-6-yl]-2,4-pyrimidinediamine] |  |  | IC50 [1, 4]: 108 nM; IC50 (Primary human T-cells; [5]): 1540 nM
CNS(=O)(=O)c1cc(Nc2ncc(F)c(Nc3ccc(-c4cnco4)cc3)n2)ccc1C [IV-7, 5-Fluoro-N2-[3-(N-methylaminosulfony)-4-methylphenyl]-N4-[4-(1,3-oxazol-5-yl)phenyl]-2,4-pyrimidinediamine] |  |  | IC50 [1, 4]: 112 nM; IC50 (Primary human T-cells; [5]): 203 nM
C=CCNC(=O)COc1ccc(Nc2nc(Nc3ccc(C)c(S(N)(=O)=O)c3)ncc2F)cc1 [Compound I-159, N4-(4-Allylaminocarbonylmethoxyphenyl)-N2-(3-aminosulfonyl-4-methylphenyl)-5-fluoro-2,4-pyrimidinediamine] | 338 nM | 539 nM | 
CNC(=O)OCCc1ccc(Nc2nc(Nc3cccc(S(N)(=O)=O)c3)ncc2F)cc1 [III-60, N2-(3-Aminosulfonylphenyl)-5-fluoro-N4-{4-[2-(methylaminocarbonyloxy)ethyl]phenyl}-2,4-pyrimidinediamine] | 135 nM | 178 nM | 
NS(=O)(=O)c1cccc(Nc2ncc(F)c(NCCc3ccc(-n4ccnc4)cc3)n2)c1 [III-87, N2-(3-Aminosulfonylphenyl)-5-fluoro-N4-[4-(1-imidazolyl)phenethyl]-2,4-pyrimidinediamine] | 141 nM | 142 nM | 
